# Measurements reported in US8063014B2, “Self-assembly of peptide-amphiphile nanofibers under physiological conditions” (Northwestern University, priority 2002, dated 2011).
# Non-standard residues stand in square brackets, D forms with d. Residues, ends and D or L forms follow the SMILES beside them. *: point of attachment. C16 alkyl = N-terminal C16 alkyl tail, CCCCCCCCCCCCCCCC*; Palmitoyl = CCCCCCCCCCCCCCCC(=O)*; pS = N[C@@H](COP(=O)(O)O)C(=O)O
# What was measured:
# [1] = Solubility, pH-dependent precipitation and gelation in water; format: physicochemical
# Experimental: (§1) After synthesis (see, example 10), the PA of FIG. 1 (characterized by ^1H NMR and matrix-assisted laser desorption/ionization time-of-flight mass spectrometry (MALDI-TOF MS): matrix ion [M−H]^−1=1333) was treated with dithiothreitol (DTT) at a pH of 8 to reduce all cysteine residues to free thiols. […] However, upon acidification of the solution below pH 4 the material rapidly becomes insoluble. Solutions more concentrated than 2.5 mg/ml form birefringent gels in water that are self-supporting upon inversion of the container. […] Negatives were digitized in the Umax PowerLook scanner with resolution 1200 dpi. The average thickness of the PA fibers was determined by two different procedures. First the Fourier transform of the images and following measurements of the distances between the peaks were performed in the NIH Image […] program. The second approach applied was averaging technique based on the cross-correlation method, widely used in single particle reconstruction using the EMAN […] program. For each data set 1200-1300 individual boxes were selected.
# Several PAs with basic amino acids that can self-assemble at alkaline pH and also mixed systems, in which oppositely charged PAs self-assemble at neutral pH, were prepared. For this purpose PA compounds 22-25 were prepared by standard solid phase peptide synthesis followed by alkylation with the C16 fatty acid, palmitic acid. See Table 2, FIG. 10b (PA 22) and FIGS. 10c-e (PAs 23-25). The peptides thus prepared were characterized by electrospray mass spectroscopy and found to correspond to their respective expected masses.
# Solutions of each compound of example 6 were prepared at a concentration of 0.1 mg/m1 at neutral pH.
# [2] = TEM of self-assembled nanofibers (fiber formation and diameter); format: physicochemical
# Experimental: as §1, with “selected. […]” for “selected.”
# Samples of the peptide-amphiphiles were prepared for TEM analysis in two different ways. In some cases a small sample of the gel, prepared in bulk as described above, was smeared onto a holey carbon coated TEM grid (Quantifoil). […]
# [3] = Mineralization of PA nanofibers with CaCl2 and Na2HPO4 on TEM grid; conditions: 30 minutes of incubation with calcium and phosphate
# Experimental: To investigate the mineralization properties of PA nanofibers of this invention, the material was assembled and mineralized directly on a holey carbon coated TEM grid—to allow study of the dynamics of the mineralization process while minimizing artifacts of TEM sample preparation. To prepare samples, a drop of aqueous PA (1 mg/ml) was mounted on the holey grid and the self-assembly of the PA was induced in an atmosphere of HCl vapor. The grids were immersed in aqueous iodine to oxidize the cysteine thiol groups to disulfides. After rinsing with distilled water, the PA coated grids were treated with 5 μl of 10 mM CaCl2 on one side and 5 μl of 5 mM Na2HPO4 on the other side. The two solutions are able to mix only by passing through the holes in the carbon support.
# In a second control, a PA was prepared in which phosphoserine was replaced by serine and treated as above with calcium and phosphate.
# [4] = Self-assembly on drying onto a surface; format: physicochemical; conditions: dissolved at neutral / physiological pH (pH 8), dried, negative stain TEM
# Text: Such a facile approach allows this novel material to be formed in a pH independent manner, as may be important in applications that are particularly sensitive to changes in pH, including the delivery of cells in conjunction with the gelling system and generally avoiding contact between tissues and materials at non-physiological pH.
# Illustrating another gelation factor of this invention, self-assembly can occur by simply taking a PA (such as PA 17, Table 2) or a combination of PAs dissolved in water at pH 8 and placing it on a surface which is allowed to dry (for example, directly on a carbon coated TEM grid). […] (See, FIG. 11.)
Compound,pH below which the material rapidly becomes insoluble on acidification ([1]; acidification of the aqueous solution),concentration above which solutions form self-supporting birefringent gels in water ([1]; after acidification),"solubility in water ([1]; pH of 8, DTT-reduced)","fiber diameter, positively and negatively stained dried fibers ([2]; TEM, dried)","fiber diameter, cryo-TEM ([2]; native hydrated gel)",mineral observed on the fibers by TEM [3],self-assembly on drying from solution onto a surface [4]
"CCCCCCCCCCCCCCCC(=O)N[C@@H](CS)C(=O)N[C@@H](CS)C(=O)N[C@@H](CS)C(=O)N[C@@H](CS)C(=O)NCC(=O)NCC(=O)NCC(=O)N[C@@H](COP(=O)(O)O)C(=O)N[C@@H](CCCNC(=N)N)C(=O)NCC(=O)N[C@@H](CC(=O)O)C(=O)O [PA 26, Alkyl*-C4G3S^(P)RGD-COOH] (Palmitoyl-CCCCGGG[pS]RGD-OH)",< 4 pH,> 2500 µg/mL,> 50 mg/mL,6.0±1 nm,7.6±1 nm,heavy crystallization,
17 ({C16 alkyl}-CCCCGGG[pS]RGD-OH; cysteine pairing not given here) [compound 17],,,,,,,formation of nanofibers
